Test results taken from patent US8372430B2, “Compositions, methods, and kits useful for the alleviation of gastrointestinal effects” (priority 2002, dated 2013).

What was measured:
[1] = system: male, Sprague-Dawley rats; experiment: Fur appearance score: separation of excreted dietary oil from fecal matter in rats fed food compositions; assay type: in vivo, rat; conditions: food with 0.04% orlistat, no calcium stearate, ad libitum 11 days, assessed days 7 and 11; scale 1 (no oil visible on fur) to 5 (>90% of fur oiled)
Description: Groups of male, Sprague-Dawley rats (commercially available from Harlan Labs, Indianapolis, Ind.), were presented with a composition, which was a food composition, containing either 0.04% orlistat, by weight of the composition, or the combination of 0.04% orlistat and 1%, 0.5%, or 0.25% calcium stearate, all by weight of the composition. The fat content of each composition provided 30% of the consumed energy of the rat. Another group of rats (also male, Sprague Dawley, commercially available from Harlan Labs, Indianapolis, Ind.) were presented with the same food compositions, except devoid of orlistat and calcium stearate (“control compositions”). All rats consumed their respective compositions ad libitum for 11 days.
On the seventh and eleventh days of these dietary regimens, the appearance of each rat was viewed by assessors not aware of the identity of composition consumed by the rats. Separation of oil from the other fecal matter of each rat was determined by the use of a scale that quantified the fraction of the rat's fur that was coated with excreted dietary oil. […] Intermediate scores of “2,” “3,” and “4” indicated partial covering of the rat's fur, with “2” corresponding to approximately 10% coverage or less, “3” corresponding to approximately greater than 10% to approximately 50% coverage, and “4” corresponding to approximately greater than 50% to approximately 90% coverage.

overweight human subject [2] = experiment: Example 5: XENICAL regimen changed to XENICAL plus behenic acid capsules in an overweight human subject; assay type: in vivo; conditions: behenic acid 1.2 g capsule with XENICAL (120 mg orlistat) at each meal
Procedure: An overweight human subject is given a therapeutic dose of XENICAL@ (360 mg orlistat per day/three doses of 120 mg orlistat with each meal) to assist in the reduction of body weight.
When these symptoms are first observed, the regimen is modified to a combination of XENICAL® and behenic acid. At each meal, the subject consumes two capsules. The first capsule is XENICAL® (120 mg orlistat) while the second capsule contains the behenic acid (1.2 g). These capsules are co-packaged in a kit for the convenience of the subject.

overweight human subject [3] = experiment: Example 4: XENICAL regimen with separate magnesium stearate wafer in an overweight human subject; assay type: in vivo
Procedure: XENICAL® is prescribed to an overweight human subject at a therapeutic dose of 120 mg orlistat taken with each of three daily meals. This dose causes a reduction in the absorption of dietary fat such that total caloric intake by the subject is reduced by approximately 10%, relative to the subjects normal dietary energy intake. […] In particular, magnesium stearate is provided at an amount of 1 gram incorporated into a wafer that is consumed with each meal, resulting in a total consumption of 3 grams per day of magnesium stearate. […] The efficacy of the XENICAL® is unaffected by the addition of magnesium stearate to the diet.

Compound: CCCCCCCCCCCC(CC1OC(=O)C1CCCCCC)OC(=O)C(CC(C)C)NC=O (stereo not shown) [orlistat, tetrahydrolipstatin]
- mean fur appearance score [1]: 2.4

Compound: CCCCCCCCCCCCCCCCCCCCCC(=O)O [behenic acid]
- state of the excreted fat (overweight human subject [2]): stiffened

Compound: magnesium stearate
- effect on gastrointestinal discomfort and anal leakage of unabsorbed oil (overweight human subject [3]; 1 gram magnesium stearate in a wafer with each meal (3 grams per day), together with XENICAL): prevents the gastrointestinal discomfort and anal leakage of unabsorbed oil
- efficacy of XENICAL on addition of magnesium stearate to the diet (overweight human subject [3]; 3 grams per day magnesium stearate with XENICAL 120 mg orlistat per meal): unaffected
